Source: patent publication US9549932B2, “2-(morpholin-4-yl)-1,7-naphthyridines” (BAYER PHARMA AKTIENGESELLSCHAFT, priority 2014, dated 2017)
Read-outs that look alike come from different tables or passages of the source.

Molecular target: full-length human ATR protein (Homo sapiens (Human), UniProt Q13535)
Test: Binding assay ATR (TR-FRET tracer displacement)
Details: TR-FRET
Outline: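 Full-length human GST-ATR co-purified with ATRIP, pre-complexed 30 min at 22 °C with anti-GST-Tb antibody, then pre-bound with compound 10 min. Tracer A or B added (2 µl of 100 nM solution), 30 min at 22 °C.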

[1] = tracer A, read-out: ATR binding (tracer A) IC50
[2] = tracer B, read-out: ATR binding (tracer B) IC50

full-length human ATR protein, sequence (Q13535 other isoform, or with tags, fused parts or gaps): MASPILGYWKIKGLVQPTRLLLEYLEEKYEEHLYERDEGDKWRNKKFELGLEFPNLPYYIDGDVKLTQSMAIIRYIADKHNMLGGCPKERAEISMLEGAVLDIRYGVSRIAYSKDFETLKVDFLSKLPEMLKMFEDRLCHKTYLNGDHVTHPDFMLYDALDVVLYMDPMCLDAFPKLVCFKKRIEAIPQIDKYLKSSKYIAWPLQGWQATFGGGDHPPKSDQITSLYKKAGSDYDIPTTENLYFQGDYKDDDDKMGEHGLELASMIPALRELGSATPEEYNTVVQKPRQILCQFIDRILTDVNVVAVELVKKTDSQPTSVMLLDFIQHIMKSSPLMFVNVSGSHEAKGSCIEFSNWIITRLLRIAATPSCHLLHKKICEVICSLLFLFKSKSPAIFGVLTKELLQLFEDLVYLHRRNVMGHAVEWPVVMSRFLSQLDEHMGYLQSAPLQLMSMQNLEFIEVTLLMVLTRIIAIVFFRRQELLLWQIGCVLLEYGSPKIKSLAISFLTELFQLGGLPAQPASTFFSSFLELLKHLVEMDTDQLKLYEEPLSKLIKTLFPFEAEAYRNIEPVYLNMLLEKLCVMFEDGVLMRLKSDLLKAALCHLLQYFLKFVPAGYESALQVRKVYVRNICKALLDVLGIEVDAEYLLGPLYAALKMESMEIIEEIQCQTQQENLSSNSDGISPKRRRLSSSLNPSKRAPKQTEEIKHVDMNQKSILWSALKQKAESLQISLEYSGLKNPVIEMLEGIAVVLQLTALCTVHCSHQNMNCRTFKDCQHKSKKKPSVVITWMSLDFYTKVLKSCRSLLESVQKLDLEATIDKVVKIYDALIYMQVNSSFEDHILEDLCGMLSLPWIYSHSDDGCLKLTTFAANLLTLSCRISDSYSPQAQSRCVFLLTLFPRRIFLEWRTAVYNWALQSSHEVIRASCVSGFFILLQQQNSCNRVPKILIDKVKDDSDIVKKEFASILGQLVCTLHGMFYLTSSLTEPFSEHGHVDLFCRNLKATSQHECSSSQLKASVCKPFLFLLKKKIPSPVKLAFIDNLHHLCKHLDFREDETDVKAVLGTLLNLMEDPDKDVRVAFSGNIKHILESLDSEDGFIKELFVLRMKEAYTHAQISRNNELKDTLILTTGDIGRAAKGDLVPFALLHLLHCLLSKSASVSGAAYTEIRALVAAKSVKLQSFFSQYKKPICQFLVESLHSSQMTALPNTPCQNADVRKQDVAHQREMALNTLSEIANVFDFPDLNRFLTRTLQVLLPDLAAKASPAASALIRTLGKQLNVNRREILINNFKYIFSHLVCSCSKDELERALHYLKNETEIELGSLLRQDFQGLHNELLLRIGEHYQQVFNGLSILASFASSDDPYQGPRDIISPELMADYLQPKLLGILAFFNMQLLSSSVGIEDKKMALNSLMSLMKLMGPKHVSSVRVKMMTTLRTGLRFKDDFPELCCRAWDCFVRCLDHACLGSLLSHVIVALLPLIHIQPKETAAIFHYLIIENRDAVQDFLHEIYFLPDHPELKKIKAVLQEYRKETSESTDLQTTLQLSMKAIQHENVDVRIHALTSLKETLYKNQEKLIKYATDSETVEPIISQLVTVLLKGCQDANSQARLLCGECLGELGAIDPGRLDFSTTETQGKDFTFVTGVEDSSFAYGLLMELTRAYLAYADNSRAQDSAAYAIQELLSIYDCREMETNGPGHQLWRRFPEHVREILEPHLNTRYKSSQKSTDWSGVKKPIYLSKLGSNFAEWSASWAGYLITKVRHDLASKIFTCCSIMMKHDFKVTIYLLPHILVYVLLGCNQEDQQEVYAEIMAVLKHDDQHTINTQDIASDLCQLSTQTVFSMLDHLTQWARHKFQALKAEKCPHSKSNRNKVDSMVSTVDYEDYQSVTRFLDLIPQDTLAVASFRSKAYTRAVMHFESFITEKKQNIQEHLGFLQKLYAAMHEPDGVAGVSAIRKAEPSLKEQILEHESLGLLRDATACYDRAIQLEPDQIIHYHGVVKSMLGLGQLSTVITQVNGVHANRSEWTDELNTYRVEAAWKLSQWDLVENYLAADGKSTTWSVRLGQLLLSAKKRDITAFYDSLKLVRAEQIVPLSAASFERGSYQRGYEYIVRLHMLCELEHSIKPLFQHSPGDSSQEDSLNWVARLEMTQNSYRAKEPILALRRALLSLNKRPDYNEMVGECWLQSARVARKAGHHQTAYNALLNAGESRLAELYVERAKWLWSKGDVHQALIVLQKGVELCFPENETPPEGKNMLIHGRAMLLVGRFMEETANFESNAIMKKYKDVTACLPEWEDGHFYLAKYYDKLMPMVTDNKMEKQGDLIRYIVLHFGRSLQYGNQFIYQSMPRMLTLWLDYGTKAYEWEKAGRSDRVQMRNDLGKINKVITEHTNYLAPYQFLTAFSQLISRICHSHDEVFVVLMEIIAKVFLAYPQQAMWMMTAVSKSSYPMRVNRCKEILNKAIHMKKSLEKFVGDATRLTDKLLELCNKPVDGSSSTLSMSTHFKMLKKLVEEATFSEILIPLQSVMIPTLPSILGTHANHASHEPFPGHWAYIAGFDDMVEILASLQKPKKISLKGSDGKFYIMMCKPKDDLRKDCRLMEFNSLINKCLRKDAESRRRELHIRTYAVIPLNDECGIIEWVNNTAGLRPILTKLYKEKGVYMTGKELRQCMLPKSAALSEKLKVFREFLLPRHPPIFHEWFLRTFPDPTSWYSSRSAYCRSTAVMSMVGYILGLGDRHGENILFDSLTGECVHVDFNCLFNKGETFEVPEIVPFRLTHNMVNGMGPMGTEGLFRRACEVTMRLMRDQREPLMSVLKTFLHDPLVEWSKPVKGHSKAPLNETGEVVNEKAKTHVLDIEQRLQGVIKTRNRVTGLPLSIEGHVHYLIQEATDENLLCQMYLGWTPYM
full-length human ATR protein, sequence (Q8WXE1 other isoform, or with tags, fused parts or gaps partner): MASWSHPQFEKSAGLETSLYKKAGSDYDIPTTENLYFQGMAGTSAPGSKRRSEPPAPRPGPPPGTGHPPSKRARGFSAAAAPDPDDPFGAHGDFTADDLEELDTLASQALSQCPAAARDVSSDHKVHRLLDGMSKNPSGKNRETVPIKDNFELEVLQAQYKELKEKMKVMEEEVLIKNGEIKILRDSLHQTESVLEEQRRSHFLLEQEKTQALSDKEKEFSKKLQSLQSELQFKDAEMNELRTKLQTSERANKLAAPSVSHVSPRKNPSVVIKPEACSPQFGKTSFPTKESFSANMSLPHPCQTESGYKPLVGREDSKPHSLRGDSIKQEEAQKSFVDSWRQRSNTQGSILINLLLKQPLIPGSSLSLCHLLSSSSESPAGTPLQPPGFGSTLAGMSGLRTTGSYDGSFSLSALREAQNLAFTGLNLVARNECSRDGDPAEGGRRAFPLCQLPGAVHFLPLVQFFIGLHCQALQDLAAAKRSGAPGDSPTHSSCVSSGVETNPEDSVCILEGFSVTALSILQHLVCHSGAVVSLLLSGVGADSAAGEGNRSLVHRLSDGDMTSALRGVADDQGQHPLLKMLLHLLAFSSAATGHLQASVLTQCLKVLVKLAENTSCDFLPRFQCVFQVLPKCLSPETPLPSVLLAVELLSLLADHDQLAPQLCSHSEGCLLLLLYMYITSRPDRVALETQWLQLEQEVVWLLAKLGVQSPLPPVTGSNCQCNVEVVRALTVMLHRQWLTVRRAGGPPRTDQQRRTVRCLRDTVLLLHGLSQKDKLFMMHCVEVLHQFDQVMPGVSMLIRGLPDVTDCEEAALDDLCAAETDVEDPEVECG

Compound `C[C@@H]1COCCN1c1cc(-c2cccn2C)c2ccnc(-c3ccn[nH]3)c2n1` [Example 91, 2-[(3R)-3-methylmorpholin-4-yl]-4-(1-methyl-1H-pyrrol-2-yl)-8-(1H-pyrazol-5-yl)-1,7-naphthyridine] has an IC50 [1] of 10 nM.

Compound `Cc1cncc(-c2cc(N3CCOCC3)nc3c(-c4ccn[nH]4)nccc23)c1` [Example 352, 4-(5-methylpyridin-3-yl)-2-(morpholin-4-yl)-8-(1H-pyrazol-5-yl)-1,7-naphthyridine] has an IC50 [1] of 175 nM.

`C[C@@H]1COCCN1c1cc(C(C)(C)O)c2ccnc(-c3ccn[nH]3)c2n1` [Example 128, 2-{2-[(3R)-3-methylmorpholin-4-yl]-8-(1H-pyrazol-5-yl)-1,7-naphthyridin-4-yl}propan-2-ol] gave an IC50 [1] of 32.6 nM.

In the case of `CN1CC=C(c2cc(N3CCOCC3)nc3c(-c4ccn[nH]4)nccc23)CC1` [Example 14, 4-(1-methyl-1,2,3,6-tetrahydropyridin-4-yl)-2-(morpholin-4-yl)-8-(1H-pyrazol-5-yl)-1,7-naphthyridine], the IC50 [1] is reported as 162 nM and the IC50 [2] is reported as 79.9 nM.

`CC(C)Cn1cc(-c2cc(N3CCOC[C@H]3C)nc3c(-c4ccn[nH]4)nccc23)cn1` [Example 268, 2-[(3R)-3-methylmorpholin-4-yl]-4-[1-(2-methylpropyl)-1H-pyrazol-4-yl]-8-(1H-pyrazol-5-yl)-1,7-naphthyridine] was tested, and the IC50 [1] was 19.3 nM.

With `C[C@@H]1COCCN1c1cc(OCCCCNC(=O)OC(C)(C)C)c2ccnc(-c3ccn[nH]3)c2n1` [Example 52, Tert-butyl [4-({2-[(3R)-3-methylmorpholin-4-yl]-8-(1H-pyrazol-5-yl)-1,7-naphthyridin-4-yl}oxy)butyl]carbamate] the IC50 [1] was 101 nM and the IC50 [2] was 78.9 nM.

`C[C@@H]1COCCN1c1cc(N=S(C)(=O)c2ccc(F)cc2)c2ccnc(-c3ccn[nH]3)c2n1` (stereo partly drawn) [Example 138, 4-{[(4-fluorophenyl)(methyl)oxido-λ^6-sulfanylidene]amino}-2-[(3R)-3-methylmorpholin-4-yl]-8-(1H-pyrazol-5-yl)-1,7-naphthyridine] was tested, and the IC50 [1] was 29 nM.

Work on `FC(F)(F)c1ccccc1-c1cc(N2CCOCC2)nc2c(-c3ccn[nH]3)nccc12` [Example 301, 2-(morpholin-4-yl)-8-(1H-pyrazol-5-yl)-4-[2-(trifluoromethyl)phenyl]-1,7-naphthyridine] yielded an IC50 [1] of 21.6 nM.

`CN(C)C(=O)c1ccc(-c2cc(N3CCOCC3)nc3c(-c4ccn[nH]4)nccc23)cc1` [Example 324, N,N-dimethyl-4-[2-(morpholin-4-yl)-8-(1H-pyrazol-5-yl)-1,7-naphthyridin-4-yl]benzamide] was tested, and the IC50 [1] was 77.7 nM.

In the case of `Cc1nn(C)c(C)c1-c1cc(N2CCOCC2)nc2c(-c3ccn[nH]3)nccc12` [Example 273, 2-(morpholin-4-yl)-8-(1H-pyrazol-5-yl)-4-(1,3,5-trimethyl-1H-pyrazol-4-yl)-1,7-naphthyridine], the IC50 [1] is reported as 14 nM.

With `c1cc2c(C3CC3)cc(N3CCOCC3)nc2c(-c2cc[nH]n2)n1` [Example 18, 4-cyclopropyl-2-(morpholin-4-yl)-8-(1H-pyrazol-3-yl)-[1,7]naphthyridine] the IC50 [1] was 228 nM and the IC50 [2] was 75.1 nM.

`C[C@@H]1COCCN1c1cc(N=S(C)(=O)c2ccccc2F)c2ccnc(-c3ccn[nH]3)c2n1` (single isomer, unassigned) [Example 140] was tested, and the IC50 [1] was 76.5 nM.

`C[C@@H]1COCCN1c1cc(-c2cccc(S(C)(=N)=O)c2)c2ccnc(-c3ccn[nH]3)c2n1` (stereo partly drawn) [Example 31, 3-[2-((R)-3-methylmorpholin-4-yl)-8-(2H-pyrazol-3-yl)-[1,7]naphthyridine-4-yl]phenyl-S-methylsulphoximide] showed an IC50 [1] of 86.6 nM and an IC50 [2] of 45.1 nM.

With `CNC(=O)c1cccc(-c2cc(N3CCOCC3)nc3c(-c4ccn[nH]4)nccc23)c1` [Example 297, N-methyl-3-[2-(morpholin-4-yl)-8-(1H-pyrazol-5-yl)-1,7-naphthyridin-4-yl]benzamide] the IC50 [1] was 119 nM.

With `C[C@@H]1COCCN1c1cc(C2=CCN(C)CC2)c2ccnc(-c3ccn[nH]3)c2n1` [Example 243, 2-[(3R)-3-methylmorpholin-4-yl]-4-(1-methyl-1,2,3,6-tetrahydropyridin-4-yl)-8-(1H-pyrazol-5-yl)-1,7-naphthyridine] the IC50 [1] was 36.5 nM.

Compound `C[C@@H]1COCCN1c1cc(C(C)(O)C2CCOCC2)c2ccnc(-c3ccn[nH]3)c2n1` (stereo partly drawn) [Example 282, 1-{2-[(3R)-3-methylmorpholin-4-yl]-8-(1H-pyrazol-5-yl)-1,7-naphthyridin-4-yl}-1-(tetrahydro-2H-pyran-4-yl)ethanol] has an IC50 [1] of 12.7 nM.

For `Cc1sccc1-c1cc(N2CCOC[C@H]2C)nc2c(-c3ccn[nH]3)nccc12` [Example 103, 2-[(3R)-3-methylmorpholin-4-yl]-4-(2-methyl-3-thienyl)-8-(1H-pyrazol-5-yl)-1,7-naphthyridine], the IC50 [1] was 10.1 nM.

`c1cc(-c2cc(N3CCOCC3)nc3c(-c4ccn[nH]4)nccc23)c2ccncc2c1` [Example 397, 4-(isoquinolin-5-yl)-2-(morpholin-4-yl)-8-(1H-pyrazol-5-yl)-1,7-naphthyridine] showed an IC50 [1] of 95.5 nM.

With `c1c[nH]c(-c2cc(N3CCOCC3)nc3c(-c4ccn[nH]4)nccc23)c1` [Example 211, 2-(morpholin-4-yl)-8-(1H-pyrazol-5-yl)-4-(1H-pyrrol-2-yl)-1,7-naphthyridine] the IC50 [1] was 547 nM.

Compound `Nc1ccccc1-c1cc(N2CCOCC2)nc2c(-c3ccn[nH]3)nccc12` [Example 343, 2-[2-(morpholin-4-yl)-8-(1H-pyrazol-5-yl)-1,7-naphthyridin-4-yl]aniline] has an IC50 [1] of 19.8 nM.

Work on `Clc1cc(N2CCOCC2)nc2c(-c3cc[nH]n3)nccc12` [Example 62, 4-chloro-2-morpholin-4-yl-8-(1H-pyrazol-3-yl)-[1,7]naphthyridine] yielded an IC50 [1] of 997 nM and an IC50 [2] of 707 nM.

`C[C@@H]1COCCN1c1cc(-c2ccnn2C(C)(C)C)c2ccnc(-c3ccn[nH]3)c2n1` [Example 110, 4-(1-tert-butyl-1H-pyrazol-5-yl)-2-[(3R)-3-methylmorpholin-4-yl]-8-(1H-pyrazol-5-yl)-1,7-naphthyridine] was tested, and the IC50 [1] was 13.5 nM.

`C[C@@H]1COCCN1c1cc(N=S(C)(=O)c2ccccc2F)c2ccnc(-c3ccn[nH]3)c2n1` (stereo partly drawn) [Example 139, 4-{[(2-fluorophenyl)(methyl)oxido-λ^6-sulfanylidene]amino}-2-[(3R)-3-methylmorpholin-4-yl]-8-(1H-pyrazol-5-yl)-1,7-naphthyridine] gave an IC50 [1] of 41.7 nM.

`CNC(=O)[C@@H]1CCCN1c1cc(N2CCOCC2)nc2c(-c3ccn[nH]3)nccc12` [Example 432, N-methyl-1-[2-(morpholin-4-yl)-8-(1H-pyrazol-5-yl)-1,7-naphthyridin-4-yl]-prolinamide] gave an IC50 [1] of 2040 nM.

Compound `Cc1nnc(-c2cc(N3CCOC[C@H]3C)nc3c(-c4ccn[nH]4)nccc23)o1` [Example 136, 2-[(3R)-3-methylmorpholin-4-yl]-4-(5-methyl-1,3,4-oxadiazol-2-yl)-8-(1H-pyrazol-5-yl)-1,7-naphthyridine] has an IC50 [1] of 35.8 nM.

For `COc1ccc(Sc2cc(N3CCOC[C@H]3C)nc3c(-c4ccn[nH]4)nccc23)cc1` [Example 222], the IC50 [1] was 50.2 nM.

Compound `Cc1cccc(-c2cc(N3CCOC[C@H]3C)nc3c(-c4ccn[nH]4)nccc23)n1` [Example 164, 2-[(3R)-3-methylmorpholin-4-yl]-4-(6-methylpyridin-2-yl)-8-(1H-pyrazol-5-yl)-1,7-naphthyridine] has an IC50 [1] of 161 nM.
